Test results: the supplement of paper PMC10307832

Assays:
Assay in all cases: relative viability (nuclei count vs DMSO), 5 days (fraction); higher = more cells survive
4EGI-1 = compound: O=C(O)C(Cc1ccccc1[N+](=O)[O-])=NNc1nc(-c2ccc(Cl)c(Cl)c2)cs1 (mixture of isomers) [4EGI-1]
Procedure, shortened: (§1)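 Five library-drug doses spaced by √10 were pinned onto vehicle-anchored 1536-well plates of lung cancer cell lines that had been kept overnight at 37 °C. Cells went 5 days without medium change, then were fixed, permeabilised and Hoechst-stained together, imaged at 4× and counted by MetaXpress. Viability is the ratio of treated-well to vehicle-well nuclei, taken as a median over plates. Plates required control CV below 25% and at least one doubling.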

XMD8-85 = compound: CN1CCN(CC1)C2=CC(=C(C=C2)NC3=NC=C4C(=N3)N(C5=CC=CC=C5C(=O)N4C)C)OC [XMD8-85]
Procedure, shortened: as §1

4EGI-1 + Bortezomib = compound: O=C(O)C(Cc1ccccc1[N+](=O)[O-])=NNc1nc(-c2ccc(Cl)c(Cl)c2)cs1 (mixture of isomers) [4EGI-1] + CC(C)C[C@H](NC(=O)[C@H](Cc1ccccc1)NC(=O)c1cnccn1)B(O)O [Bortezomib] (partner 0.002 µM)
Procedure, shortened: (§2)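 A single step with final 0.05% Triton X-100, 1% formaldehyde and 1 ug/ml Hoechst fixed the cells and stained nuclei 5 days after treatment. Lung cancer cell lines in 1536-well plates had been treated by pin tool the day after seeding with one drug alone or a fixed anchor-drug dose plus five library-drug doses (not always all listed) in √10 steps, and nuclei were counted on 4× images. Relative viability is the ratio of nuclei in treated wells to nuclei in vehicle wells, taken as the median of duplicate plates.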

XMD8-85 + Alpelisib = compound: CN1CCN(CC1)C2=CC(=C(C=C2)NC3=NC=C4C(=N3)N(C5=CC=CC=C5C(=O)N4C)C)OC [XMD8-85] + Cc1nc(NC(=O)N2CCC[C@H]2C(N)=O)sc1-c1ccnc(C(C)(C)C(F)(F)F)c1 [Alpelisib] (partner 2 µM)
Procedure, shortened: as §2

Cell Line	relative viability (4EGI-1; 0.5 µM)	relative viability (4EGI-1; 1.581 µM)	relative viability (4EGI-1; 5 µM)	relative viability (4EGI-1; 15.81 µM)	relative viability (4EGI-1; 50 µM)	relative viability (XMD8-85; 0.08 µM)	relative viability (XMD8-85; 0.253 µM)	relative viability (XMD8-85; 0.8 µM)	relative viability (XMD8-85; 2.53 µM)	relative viability (XMD8-85; 8 µM)	relative viability (4EGI-1 + Bortezomib; first compound 0.5 µM)	relative viability (4EGI-1 + Bortezomib; first compound 1.581 µM)	relative viability (4EGI-1 + Bortezomib; first compound 5 µM)	relative viability (4EGI-1 + Bortezomib; first compound 15.81 µM)	relative viability (4EGI-1 + Bortezomib; first compound 50 µM)	relative viability (XMD8-85 + Alpelisib; first compound 0.08 µM)	relative viability (XMD8-85 + Alpelisib; first compound 0.253 µM)	relative viability (XMD8-85 + Alpelisib; first compound 0.8 µM)	relative viability (XMD8-85 + Alpelisib; first compound 2.53 µM)	relative viability (XMD8-85 + Alpelisib; first compound 8 µM)
HCC-366	1.02	0.816	1.02	0.983	0.411	1.03	1.03	1.07	1	0.938	1.12	0.841	1.04	1.09	0.19	0.532	0.573	0.42	0.373	0.273
HCC-827	1.02	0.923	1.07		0.922	1.03	1.04	1.01	1.08	1.04	0.991	0.853	1.02	0.267	0.519	0.946	1.06	0.939	1.08	0.996
HOP-62	1.02		1.02	0.999	0.744	1.08	1.06	0.952	1.01		1.32		1.03	1.06	0.45	0.85	0.967	1.04	0.908	
IA-LM	1.03	0.848	0.923	0.152	0.0847	0.84	0.923	0.872	0.723	0.489	0.873	0.707	0.552	0.144	0.0723	0.613		0.66	0.77	0.225
LC-2-ad	1.06	0.716	0.969	0.526	0.248	1.02	0.987	1.03	0.925	0.498	1.17	0.877	0.944	0.444	0.352	0.893	0.832	0.888	0.735	
LCLC-97TM1	1.01		1.19	0.963	0.632	0.915	0.991	1.24	1.09	1.05	0.589		0.942	0.271	0.277	0.294	0.238	0.293	0.263	0.36
LCLC-103H	1.01	0.929	1.01	0.972	0.696	0.929	1.03	1.05	1.04	0.88	1.03	0.964	0.98	0.955	0.959	0.88	1.04	0.933	0.961	0.728
LOU-NH91	1.02		1	0.764	0.751	0.993	0.97	0.939	1.09	0.734	0.501		0.531	0.384	0.426	0.681	0.758	0.726	0.711	0.616
LU99A	0.989	0.859	0.999	0.885	0.564	0.895	1	1	0.973	0.831	1.28		1.06	0.873	0.191	0.383	0.531	0.544	0.61	0.431
LXF-289	1.03	1.01	0.98	0.864	0.573	0.996	1.05	0.997	1.06	0.979	1.06	1.06	1	0.876	0.443	1.02	0.964	1.01	1.08	0.939
NCI-H23	1.1		1.06	1.03	0.298	0.917	0.95	0.982	1	0.72	1.16		1.18	1.03	0.656	0.608	0.824	0.741	0.64	0.391
NCI-H322M	0.94		1.05	0.75	0.5	0.906	0.937	0.939	0.97	0.621	1.18	1.21	1.18	0.991	1.09	0.77		0.819	0.784	0.782
NCI-H441	1.22	0.868	1.13	0.791	0.307	1.09	0.92	1.2	1.29	0.801	0.634	0.517	0.659	0.492	0.441	0.837	1.03	0.693	0.714	0.698
NCI-H460	1.03		1.06	0.847	0.25	0.998	1.01	1.02	0.997	0.651	1.15		1.08	0.913	0.0451	0.447	0.442	0.688	0.401	0.147
NCI-H520	1.24	0.952	1.16	0.917	0.64	0.99	0.975	1.03	1.04	0.813	0.838	0.521	0.999	0.536	0.108	0.891	0.918	0.866	0.854	0.515
NCI-H596	1.19	0.788	1.14	0.954	0.594	0.946	0.942	1.03	0.987	0.696	1	0.932	1.05	0.986	0.789		0.558	0.511	0.411	0.403

Cell Line	relative viability (4EGI-1; 0.5 µM)	relative viability (4EGI-1; 1.581 µM)	relative viability (4EGI-1; 5 µM)	relative viability (4EGI-1; 15.81 µM)	relative viability (4EGI-1; 50 µM)	relative viability (XMD8-85; 0.08 µM)	relative viability (XMD8-85; 0.253 µM)	relative viability (XMD8-85; 0.8 µM)	relative viability (XMD8-85; 2.53 µM)	relative viability (XMD8-85; 8 µM)	relative viability (4EGI-1 + Bortezomib; first compound 0.5 µM)	relative viability (4EGI-1 + Bortezomib; first compound 1.581 µM)	relative viability (4EGI-1 + Bortezomib; first compound 5 µM)	relative viability (4EGI-1 + Bortezomib; first compound 15.81 µM)	relative viability (4EGI-1 + Bortezomib; first compound 50 µM)	relative viability (XMD8-85 + Alpelisib; first compound 0.08 µM)	relative viability (XMD8-85 + Alpelisib; first compound 0.253 µM)	relative viability (XMD8-85 + Alpelisib; first compound 0.8 µM)	relative viability (XMD8-85 + Alpelisib; first compound 2.53 µM)	relative viability (XMD8-85 + Alpelisib; first compound 8 µM)
NCI-H647	1.01		1.1	0.855	0.446	0.991	0.912	1.01	1.06	0.758	1.08	1.08	1.13	0.533	0.748	0.837	1.18	1.22	1.35	0.734
NCI-H650	1.12		1.03	0.959	0.753	0.989	1.01	0.948	0.841	0.556	0.905		0.753	0.899	0.499	1.09	0.928	1.17	0.979	0.592
NCI-H661	0.975	0.911	0.974	0.583	0.467	1	1.01	0.963	1.05	0.903	1.13	0.752	0.877	0.55	0.464		0.596	0.551	0.819	0.552
NCI-H727	1.06	0.991	0.909	0.795	0.59	0.883	0.9	0.958	0.713	0.62	0.985	0.874	0.652	0.722	0.442	0.759	0.541	0.546	0.534	0.304
NCI-H838	1.03		1.02	0.912	0.342	0.951	1.02	0.997	0.937	0.754	0.865		0.82	0.612	0.167	0.983	1.03	1.09	1.01	0.446
NCI-H1299	1.02	1.01	1.01	1.03	0.828	1.06	1.03	1.01	0.98	0.81	1.02	1.04	0.993	0.997	1.02	1.15	0.948	1.08	1.07	0.874
NCI-H1355	1.04	0.93	0.948	0.862	0.566	0.995	0.941	1.01	1.13	0.749	1.32	1.17	1.11	1.18	0.545	0.844	0.89	0.807	0.731	
NCI-H1437	1.04	0.969	0.947	0.592	0.326	1	1.01	1.01	0.99	0.747	0.604	0.632	0.442	0.187	0.119	0.914	0.992	1.07	0.753	0.515
NCI-H1563	1.1	0.875	0.976	0.893	0.625	1.06	0.925	0.904	0.951	0.88	0.895	0.728	0.847	0.818	0.468	1.04	0.967	0.882	0.814	0.709
NCI-H1651	1.03	0.906	1.01	0.95	0.753	1.06	0.983	0.978	0.959	0.926	0.951	0.837	0.934	0.896	0.772	0.948	0.951	1.04	0.954	0.548
NCI-H1666	1.05	0.942	1.09	0.781	0.436	0.965	0.963	0.919	0.971	0.998	1.22	0.693	0.862	0.474	0.228	1.01	0.829	0.9	1.05	0.74
NCI-H1703	1.34	1.08	1.12	0.928	0.571	0.934	1.06	1.06	0.967	0.822	0.403	0.363	0.446	0.365	0.201	0.305	0.433	0.337	0.401	0.265
NCI-H1734	1.06	0.949	1.14	0.831	0.353	0.946	0.988	1.11	1.08	0.758	0.948	0.773	0.922	0.712	0.292	0.652	0.678	0.745	0.658	0.576
NCI-H1755	1.04	1.04	0.957	0.896	0.622	1.02	1.08	0.96	1.02	1.03	1.06	0.94	0.918	0.802	0.441	0.981	0.949	0.954	1.04	0.896
NCI-H1915	1.02	0.738	1.05	0.972	0.633	0.975	1	1.01	1.03	0.883	1	0.693	1.09	1.01	0.687	1.08	1.09	1.07	1.05	0.962
NCI-H1975	1.02	0.904	1	0.996	0.768	0.989	0.92	0.98	0.962	0.638	0.475	0.393	0.399	0.36	0.348	0.578	0.649	0.656	0.727	0.372
